In ChEMBL document CHEMBL3108719, “Synthesis and in Vitro Evaluation of a Peptidomimetic Inhibitor Targeting the Src Homology 2 (SH2) Domain of STAT6” (ACS Med Chem Lett, 2014):
Calls of active or inactive are those of the source. No cut-off for these calls is given here.

Tests used:
Assay type in all cases: cell-based
[1] = target: T1, Signal transducer and activator of transcription 6 (Homo sapiens) (UniProt P42226); assay: Inhibition of IL13-stimulated SH2 domain of STAT6 phosphorylation at Tyr641 in human BEAS2B cells at 1 to 10 uM incubated for 2 hrs prior to IL-13 challenge measured after 1 hr by Western blotting analysis
T1 sequence (whole entry): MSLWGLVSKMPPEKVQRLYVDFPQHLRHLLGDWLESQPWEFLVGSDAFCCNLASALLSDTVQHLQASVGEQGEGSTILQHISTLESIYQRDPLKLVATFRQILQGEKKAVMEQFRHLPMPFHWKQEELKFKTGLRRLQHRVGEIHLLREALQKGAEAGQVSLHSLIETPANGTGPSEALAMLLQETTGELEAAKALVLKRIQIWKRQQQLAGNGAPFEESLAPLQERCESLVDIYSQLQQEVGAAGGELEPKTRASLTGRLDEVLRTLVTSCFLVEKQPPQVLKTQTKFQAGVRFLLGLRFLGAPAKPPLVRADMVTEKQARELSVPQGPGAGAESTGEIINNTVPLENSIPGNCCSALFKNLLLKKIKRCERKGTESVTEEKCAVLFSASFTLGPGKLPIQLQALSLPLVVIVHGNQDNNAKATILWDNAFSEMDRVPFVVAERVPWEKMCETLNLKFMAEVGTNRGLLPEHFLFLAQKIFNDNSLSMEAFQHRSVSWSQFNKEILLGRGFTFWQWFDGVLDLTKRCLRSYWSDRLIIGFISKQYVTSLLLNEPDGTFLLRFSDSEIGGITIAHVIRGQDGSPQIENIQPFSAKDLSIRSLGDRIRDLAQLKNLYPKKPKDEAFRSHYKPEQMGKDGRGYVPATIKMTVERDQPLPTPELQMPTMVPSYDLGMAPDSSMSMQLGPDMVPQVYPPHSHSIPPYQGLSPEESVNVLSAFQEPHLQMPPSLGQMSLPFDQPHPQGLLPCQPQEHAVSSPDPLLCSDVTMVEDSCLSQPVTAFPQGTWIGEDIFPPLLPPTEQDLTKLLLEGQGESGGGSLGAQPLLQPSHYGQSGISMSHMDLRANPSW

[2] = target: T1, Signal transducer and activator of transcription 6 (Homo sapiens); assay: Inhibition of IL4-stimulated SH2 domain of STAT6 phosphorylation at Tyr641 in human BEAS2B cells at 1 to 10 uM incubated for 2 to 48 hrs prior to IL-4 challenge measured after 1 hr by Western blotting analysis
[3] = Cytotoxicity against human BEAS2B cells up to 10 uM after 72 hrs by MTS assay; settings: beas-2b
[4] = target: T1, Signal transducer and activator of transcription 6 (Homo sapiens); assay: Inhibition of IL4-stimulated SH2 domain of STAT6 phosphorylation at Tyr641 in human BEAS2B cells at 1 to 10 uM incubated for 2 hrs prior to IL-4 challenge measured after 1 hr by Western blotting analysis

CC(C)(C)C(=O)OCOP(=O)(OCOC(=O)C(C)(C)C)C(F)(F)c1ccc(/C=C/C(=O)N[C@H](C(=O)N2CCC[C@H]2C(=O)N(c2ccccc2)c2ccc(I)cc2)C(C)(C)C)cc1
inhibition [1]: Active | inhibition [2]: Active | Activity [3]: Non-toxic | inhibition [4]: Active
